From patent US20190183890A1, “METHODS AND COMPOSITIONS FOR PROMOTING HAIR GROWTH” (Rophe Pharma, Inc., priority 2016, published 2019)

What was measured:
[1] = tested on: androgenic alopecia; conditions: topical
[2] = tested on: androgenic alopecia

In the case of Cl.NNc1nncc2ccccc12 [hydralazine, 1-hydrazinophthalazine monohydrochloride], the hair regrowth ([1]; 0.2% solution in glycol, alcohol and water, over 200 patients, mostly androgenic alopecia) is reported as “hair grew back”, the “time until hair growth visible” value ([1]; 0.2% solution, treatment has to be continued every month to sustain the hair) is reported as “visible after the first month” and the “men with visible enhancement in hair count and hair thickness” value ([2]; 12 men aged 33-69 years, 150, then 300, then 600 mg/100 ml, after 6-8 weeks of treatment) is reported as 11 out of the 12. For the same molecule, the “treatment time to visible enhancement in hair count and hair thickness” value ([2]; 12 men, 150 to 600 mg/100 ml) was 6-8 weeks and the “onset of effect compared with Rogaine” value ([2]; 12 men, visible enhancement after 6-8 weeks) was “much faster onset of effect than Rogaine”.
